Where a name gives a salt, the structure may show the parent alone.

This passage reports IC50 results from patent US20090233930A9, “Novel 2-Amino-Imidazole-4-One Compounds and Their Use in the Manufacture of a Medicament to Be Used in the Treatment of Cognitive Impairment, Alzheimer's Disease, Neurodegeneration and Dementia” (ASTRAZENECA AB, priority 2005, published 2009).

This assay addresses T1, human β-Secretase (Homo sapiens, UniProt P56817).
T1 construct: The soluble part of the human β-Secretase (AA 1-AA 460) was cloned; made in house
Description: TR-FRET assay. The assay is classed as biochemical. The following applies: sBACE truncated form, substrate (Europium)CEVNLDAEFK(Qsy7) 100 nM, pH 4.5. How it is done: The enzyme used in the IGEN Cleavage-, Fluorescent-, TR-FRET- and the BiaCore assay is described as follows:
The soluble part of the human β-Secretase (AA 1-AA 460) was cloned into the ASP2-Fc10-1-IRES-GFP-neoK mammalian expression vector. The gene was fused to the Fc domain of IgG1 (affinity tag) and stably cloned into HEK 293 cells. Purified sBACE-Fc is stored in Tris buffer, pH 9.2 and has a purity of 95%.
Dilute the enzyme (truncated form) to 6 μg/mL (stock 1.3 mg/mL) and the substrate (Europium)CEVNLDAEFK(Qsy7) to 200 nM (stock 60 μM) in reaction buffer (NaAcetate, chaps, triton x-100, EDTA pH4.5). The Biomek FX is used for all liquid handling and the enzyme and substrate solutions are kept on ice until they are placed in Biomek FX. Enzyme (9 μl) is added to the plate then 1 μl of compound in dimethylsulphoxide is added, mixed and pre-incubated for 10 minutes. Substrate (10 μl) is then added, mixed and the reaction proceeds in the dark for 15 minutes at room temperature. The reaction is stopped with the addition of Stop solution (7 μl, NaAcetate pH 9). The fluorescence of the product is measured on a Victor II plate reader with an excitation wavelength of 340 nm and an emission wavelength of 615 nm. The assay is done in a Costar 384 well round bottom, low volume, non-binding surface (Corning #3676). […]

T1 sequence (P56817 22-460): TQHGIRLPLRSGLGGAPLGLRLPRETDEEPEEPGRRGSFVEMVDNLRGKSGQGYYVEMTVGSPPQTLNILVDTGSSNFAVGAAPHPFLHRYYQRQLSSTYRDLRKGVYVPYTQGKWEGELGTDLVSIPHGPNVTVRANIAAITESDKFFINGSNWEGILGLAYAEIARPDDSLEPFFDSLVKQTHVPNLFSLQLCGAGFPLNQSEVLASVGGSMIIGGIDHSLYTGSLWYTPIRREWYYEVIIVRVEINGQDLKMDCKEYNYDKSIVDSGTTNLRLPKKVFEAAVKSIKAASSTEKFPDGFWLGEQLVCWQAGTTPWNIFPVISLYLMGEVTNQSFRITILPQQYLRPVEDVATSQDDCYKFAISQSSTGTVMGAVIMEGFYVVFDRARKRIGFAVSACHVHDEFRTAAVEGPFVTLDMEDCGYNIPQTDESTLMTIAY

`COc1ccc(OS(=O)(=O)C(F)(F)F)c(-c2cccc(C3(c4ccccc4)N=C(N)N(C)C3=O)c2)c1` (centres unmarked) [Example 26, 3′-(2-Amino-1-methyl-5-oxo-4-phenyl-4,5-dihydro-1H-imidazol-4-yl)-5-methoxybiphenyl-2-yl trifluoromethanesulfonate hydrochloride] returned an IC50 of 743 nM. This lies in the sub-micromolar range.

Compound `COc1cccc(-c2cccc(C3(c4cccc(OS(=O)(=O)C(F)(F)F)c4)N=C(N)N(C)C3=O)c2)c1` (centres unmarked) [Example 45, 3-[2-Amino-4-(3′-methoxybiphenyl-3-yl)-1-methyl-5-oxo-4,5-dihydro-1H-imidazol-4-yl]phenyl trifluoromethanesulfonate hydrochloride] registered an IC50 of 258 nM. Against the preceding compound, the IC50 is about 2.9-fold lower.
